Source: US10316008B2, “KCNQ potassium channel agonist, and preparation method therefor and use thereof” (SHANGHAI INSTITUTE OF MATERIA MEDICA, CHINESE ACADEMY OF …, priority 2014, dated 2019)
Several values for one entry are separate records, joined by “and”; a condition that tells them apart may be missing. Equal entries are not always repeated. Structures can show the parent of a compound that is named as a salt. Where two headings read alike, the source gives them in different places.

Columns and labels:
[1] = Pharmacokinetics and distribution in brain tissue in rats; format: in vivo, Sprague Dawley rats; details: SD rats; for Vd: read-out: VdSS
Procedure: After K43 was administered to Sprague Dawley rats via intravenous injection or oral administration, blood sample and brain tissue were collected at different time points. the concentration of K43 in plasma and brain of rats after administration of the compounds was analyzed by LC-MS/MS and used to calculate the pharmacokinetic parameters, evaluating the oral bioavailability and distribution in brain tissue of K43 in rats.
24 SD rats, which were provided by SHANGHAI SLAC LABORATORY ANIMAL CO. LTD., were used to perform the experiments according to the following table.
About 0.15 mL of blood was collected through orbit per animal every time, and EDTAK2 was used for anticoagulation. For IV group, the time points for collection were before administration (0 hr), and 5 min, 15 min, 30 min, 1 h, 2 h, 4 h, 6 h, 8 h and 24 h after administration; and for PO group, the time points for collection were before administration (0 hr), 15 min, 30 min, 1 h, 2 h, 4 h, 6 h, 8 h and 24 h after administration. The time points for collecting brain tissue were 0.25, 0.5, 1, 2, 4, 6 and 24 h. The collected blood samples were placed on icen, and plasma was centrifuged within 1 h (centrifugal condition: 12000 rpm, 2 min, 4° C.). The collected plasma was cryopreserved in a −20° C. refrigerator before analysis.
Pharmacokinetic parameters after administration were calculated according to the obtained data of plasma concentration using the non-compartmental model of WinNonlin V6.3.

KCNQ potassium channel = assay: Whole-cell voltage-clamp recording in CHO-K1 cells transfected with KCNQ plasmid; format: cell-based; details: for I/I0: current enhancement factor, −10 mV testing voltage, compound concentration 10 μM, >1 activating, <1 inhibiting; for ΔV1/2: shift of V1/2, negative sign = left-ward shift of current activation curve, compound 10 μM, CHO-K1 cells
Procedure: The culture medium for Chinese hamster oocytes (CHO-K1) (Culture Collection of Chinese Academy of Sciences): 50/50 DMEM/F-12 (Cellgro, Manassas, Va.), added with 10% fetal bovine serum (FBS) (Gibco, Australia) and 2 mM L-glutamic acid (Invitrogen). […] Lipofectamine 2000™ agent (Invitrogen) was used for Transfection according to the protocol thereof. GFP (green fluorescent protein) was cotransfected to be used as a indication of successful converting into KCNQ plasmid.
Whole-cell voltage-clamp recording was performed on an Axopatch-200B amplifier (Molecular Devices, Sunnyvale, Calif.) at room temperature. The electrode was made by drawing borosilicate glass capillary (World Precision Instruments, Sarasota, Fla.). The electric resistance of the electrode filled with an intracellular fluid is 3 to 5 MΩ. […] During the recording, an extracellular fluid was continuously perfused by using a BPS perfusion system (ALA Scientific Instruments, Westburg, N.Y.). The composition of the extracellular fluid (1 L) was as follows: 140 mM NaCl(Sigma), 5 mM KCl(Sigma), 2 mM CaCl2(Sigma), 1.5 mM MgCl2(Sigma), 10 mM HEPES(Sigma) and 10 mM glucose(Sigma) (pH was adjusted to 7.4 with NaOH). […] Series resistors compensate 60 to 80%. Up to date, multivoltage scheme was generally adopted, wherein the clamp voltage was set at −80 mV, stimulating voltage was a gradient voltage from −90 mV to 60 mV with interval of 10 mV, and the stimulating time for each voltage was 2000 ms.
V1/2 is the voltage at which 50% of cells were activated, ΔV1/2 is the shift amount of V1/2, negative sign (−) represents a left-ward shift of the current activation curve. I/I0 represents the current enhancement factor, wherein, I0 is the maximum induced current produced under stimulation of −10 mV testing voltage after administrating cells with blank extracellular fluid, I is the maximum induced current produced under stimulation of −10 mV testing voltage after administrating the drug (the compound concentration was 10 μM), I/I0>1 represents activating activity, and I/I0<1 represents inhibiting activity. N is the number of tested cells. NT represents non-tested.

[2] = IV 0.500 mg/kg, plasma, individual animals IV-1 to IV-3, 0.5 mg/kg
[3] = PO 5.00 mg/kg, plasma, individual animals PO-4 to PO-6, 5 mg/kg
[4] = Sprague-Dawley, rat, plasma, iv, 0.5 mg/kg, IV 0.500 mg/kg, individual animals IV-1 to IV-3
[5] = Sprague-Dawley, rat, plasma, iv, 0.5 mg/kg, IV 0.500 mg/kg, mean

For C#CCN(Cc1ccc(F)cc1)c1cc(C)c(NC(=O)OC)c(C)c1 [Compound K43, methyl 4-(N-parafluorobenzyl-N-propargyl-amino)-2,6-dimethylphenylaminoformate], the AUC0-t [1, 2] was 232 ng·h/mL and 239 ng·h/mL, the AUC(0-inf) [1, 2] was 236 ng·h/mL and 242 ng·h/mL and the AUMC0-inf [1, 2] was 304 h · h · ng · mL^−1 and 295 h · h · ng · mL^−1 and 293 h · h · ng · mL^−1. The AUMC0-t [1, 2] was 287 h · h · ng · mL^−1 and 258 h · h · ng · mL^−1 and 270 h · h · ng · mL^−1, the CL [1, 2] was 35.3 mL/min/kg and 34.5 mL/min/kg and the Kcl [1, 2] was 0.552 h⁻¹ and 0.427 h⁻¹ and 0.516 h⁻¹. The MRTIV [1, 2] was 1.38 h and 1.25 h and 1.21 h, the VdSS [1, 2] was 2.65 L/kg and 2.51 L/kg and the t1/2 [1, 2] was 1.62 h and 1.34 h. It also gave an AUMC0-inf ([1]; IV 0.500 mg/kg, plasma, mean) of 297 h · h · ng · mL^−1, an AUMC0-t ([1]; IV 0.500 mg/kg, plasma, mean) of 271 h · h · ng · mL^−1 and a Kcl ([1]; IV 0.500 mg/kg, plasma, mean) of 0.498 h⁻¹. For the same molecule, the MRTIV ([1]; IV 0.500 mg/kg, plasma, mean) was 1.28 h, the AUC(0-inf) ([1]; PO 5.00 mg/kg, brain tissue) was 4314 ng·h/g and the AUMC0-inf ([1]; PO 5.00 mg/kg, brain tissue) was 85535 h · h · ng · g^−1. For the same molecule, the AUMC0-t ([1]; PO 5.00 mg/kg, brain tissue) was 25306 h · h · ng · g^−1, the Kel ([1]; PO 5.00 mg/kg, brain tissue) was 0.0542 h⁻¹ and the MRTPO ([1]; PO 5.00 mg/kg, brain tissue) was 19.8 h. For the same molecule, the AUC0-t ([1]; PO 5.00 mg/kg, brain tissue (AUC0→24 hr)) was 2895 ng·h/g, the F ([1]; PO 5.00 mg/kg, individual animals PO-4 to PO-6, 5 mg/kg) was 20.3% and 59.9% and 16.5% and the AUC0-t [1, 3] was 467 ng·h/mL and 1379 ng·h/mL and 379 ng·h/mL. For the same molecule, the AUC(0-inf) [1, 3] was 471 ng·h/mL and 1605 ng·h/mL and 407 ng·h/mL, the AUMC0-inf [1, 3] was 2497 h · h · ng · mL^−1 and 18103 h · h · ng · mL^−1 and 1256 h · h · ng · mL^−1 and the AUMC0-t [1, 3] was 2360 h · h · ng · mL^−1 and 10030 h · h · ng · mL^−1 and 957 h · h · ng · mL^−1. For the same molecule, the Cmax [1, 3] was 62.7 ng/mL and 138 ng/mL and 107 ng/mL, the Kcl [1, 3] was 0.186 h⁻¹ and 0.0857 h⁻¹ and 0.371 h⁻¹ and the MRTPO [1, 3] was 5.30 h and 11.3 h and 3.09 h. For the same molecule, the Tmax [1, 3] was 4.00 h and 1.00 h, the t1/2 [1, 3] was 3.74 h and 8.09 h and 1.87 h and the AUMC0-inf ([1]; PO 5.00 mg/kg, plasma, mean) was 7285 h · h · ng · mL^−1. It also gave an AUMC0-t ([1]; PO 5.00 mg/kg, plasma, mean) of 4449 h · h · ng · mL^−1, a Kcl ([1]; PO 5.00 mg/kg, plasma, mean) of 0.214 h⁻¹ and an MRTPO ([1]; PO 5.00 mg/kg, plasma, mean) of 6.55 h. For the same molecule, the half-life ([1]; Sprague-Dawley, rat, brain, po, 5 mg/kg, PO 5.00 mg/kg, brain tissue) was 12.8 h, the Cmax ([1]; Sprague-Dawley, rat, brain, po, 5 mg/kg, PO 5.00 mg/kg, brain tissue, read-out: Cmax) was 366 ng/g and the Tmax ([1]; Sprague-Dawley, rat, brain, po, 5 mg/kg, PO 5.00 mg/kg, brain tissue, read-out: tmax) was 2 h. It also gave a clearance [1, 4] of 37.8 mL/min/kg, a half-life [1, 4] of 1.26 h and a clearance [1, 5] of 35.8 ± 1.7 mL/min/kg. It also gave a half-life [1, 5] of 1.41 ± 0.191 h, an AUC(0-inf) ([1]; Sprague-Dawley, rat, plasma, iv, 0.5 mg/kg, IV 0.500 mg/kg, plasma, individual animals IV-1 to IV-3, read-out: AUC0-inf) of 221 ng·h/mL and an AUC0-t ([1]; Sprague-Dawley, rat, plasma, iv, 0.5 mg/kg, IV 0.500 mg/kg, plasma, individual animals IV-1 to IV-3, read-out: AUC0-t) of 219 ng·h/mL. It also gave a Vd ([1]; Sprague-Dawley, rat, plasma, iv, 0.5 mg/kg, IV 0.500 mg/kg, plasma, individual animals IV-1 to IV-3) of 3.13 L/kg, an AUC(0-inf) ([1]; Sprague-Dawley, rat, plasma, iv, 0.5 mg/kg, IV 0.500 mg/kg, plasma, mean, read-out: AUC0-inf) of 233 ng·h/mL and an AUC0-t ([1]; Sprague-Dawley, rat, plasma, iv, 0.5 mg/kg, IV 0.500 mg/kg, plasma, mean, read-out: AUC0-t) of 230 ng·h/mL. It also gave a Vd ([1]; Sprague-Dawley, rat, plasma, iv, 0.5 mg/kg, IV 0.500 mg/kg, plasma, mean) of 2.76 ± 0.324 L/kg, a half-life ([1]; Sprague-Dawley, rat, plasma, po, 5 mg/kg, PO 5.00 mg/kg, mean) of 4.56 h and an AUC0-t ([1]; Sprague-Dawley, rat, plasma, po, 5 mg/kg, PO 5.00 mg/kg, plasma, mean (AUC0→24 hr), read-out: AUC0-t) of 742 ± 554 ng·h/mL. For the same molecule, the AUC(0-inf) ([1]; Sprague-Dawley, rat, plasma, po, 5 mg/kg, PO 5.00 mg/kg, plasma, mean, read-out: AUC0-inf) was 828 ng·h/mL, the Cmax ([1]; Sprague-Dawley, rat, plasma, po, 5 mg/kg, PO 5.00 mg/kg, plasma, mean, read-out: Cmax) was 103 ± 37.8 ng/mL and the Tmax ([1]; Sprague-Dawley, rat, plasma, po, 5 mg/kg, PO 5.00 mg/kg, plasma, mean, read-out: tmax) was 2.33 ± 1.53 h. The bioavailability ([1]; Sprague-Dawley, rat, plasma, PO 5.00 mg/kg, mean, read-out: F (oral bioavailability)) was 32.2 ± 24.1%.

Molecule C#CCN(Cc1ccc(F)cc1)c1cc(C)c(NC(=O)OC)c(C)c1.Cl [K43•HCl, methyl 4-(N-parafluorobenzyl-N-propargyl-amino)-2,6-dimethylphenylaminoformate hydrochloride] has an I/I0 (KCNQ potassium channel) of 4.75 ± 1.29 and a ΔV1/2 (KCNQ potassium channel) of −38.52 ± 1.67 mV.

With C#CCN(Cc1ccc(F)cc1)c1ccc(NC(=O)OC)c(C)c1 [K41•HCl] the I/I0 (KCNQ potassium channel) was 4.8 ± 0.73 and the ΔV1/2 (KCNQ potassium channel) was −23.28 ± 1.37 mV.
